Series [1] concerns the target Beta-2 adrenergic receptor (Homo sapiens, UniProt P07550).
Description: Agonist activity at human recombinant adrenergic beta-2 receptor expressed in CHO cells assessed as elevation in cAMP levels
Series [2] is filed under the species Homo sapiens. The experiment in a line: Ratio of EC50 for human recombinant adrenergic beta-2 receptor to EC50 for human recombinant adrenergic beta-1 receptor.
Series [3] in a line: Lipophilicity, log D of the compound. The series is classed as physicochemical. Conditions: octanol/water.
Series [4] can be described thus: Oral bioavailability po dosed rat. Type of series: ADME, organism-based. The settings on record: in vivo.
Series [5] is described as follows: Volume of distribution in iv dosed rat. The settings on record: in vivo. The series is classed as ADME, organism-based.
A short description of series [6]: Apparent permeability from basolateral to apical side of human Caco-2 cell membrane. The series is classed as ADME, cell-based. For orientation: Caco-2 cells form a polarised layer with tight junctions and transporters.
The test system of series [7] is Rattus norvegicus. The experiment in a line: Unbound clearance in iv dosed rat. The settings on record: in vivo. Type of series: ADME, organism-based.
A short description of series [8]: Half life in iv dosed rat. The series is classed as ADME, organism-based. The settings on record: in vivo.
The nature of series [9]: Total clearance in iv dosed rat. The series is classed as ADME, organism-based. The settings on record: in vivo.
Series [10] can be described thus: Apparent permeability from apical to basolateral side of human Caco-2 cell membrane. The series is classed as ADME, cell-based.
A short description of series [11]: Metabolic stability in human liver microsomes. The series is classed as ADME, Microsome. (Microsomes from liver hold many membrane-bound enzymes, among them those of drug oxidation.)
A short description of series [12]: Protein binding in rat plasma. Type of series: ADME, cell-free. Conditions: read-out: PPB (converted).

SMILES strings stand for the structures.

Beta-2 adrenergic receptor, sequence (P07550 whole entry): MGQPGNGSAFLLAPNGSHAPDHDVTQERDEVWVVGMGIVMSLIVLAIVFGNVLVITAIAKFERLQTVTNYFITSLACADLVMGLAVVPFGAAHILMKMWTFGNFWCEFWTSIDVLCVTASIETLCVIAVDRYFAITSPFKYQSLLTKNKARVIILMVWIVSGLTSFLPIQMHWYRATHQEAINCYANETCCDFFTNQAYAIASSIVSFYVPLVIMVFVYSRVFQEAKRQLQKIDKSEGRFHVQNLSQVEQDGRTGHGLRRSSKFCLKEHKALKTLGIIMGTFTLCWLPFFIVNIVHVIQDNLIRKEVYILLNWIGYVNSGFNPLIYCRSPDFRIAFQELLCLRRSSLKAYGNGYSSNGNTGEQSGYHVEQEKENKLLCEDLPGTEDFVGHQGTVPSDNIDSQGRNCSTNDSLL

Compound `C[C@H](Cc1ccc2[nH]c(C(=O)NCc3ccc(O)cc3)cc2c1)NC[C@H](O)c1ccc(O)c(CO)c1` displayed an EC50 in series [1] of 0.164 nM. The Ratio EC50 in [2] stood at 75.
The compound `COc1ccccc1CNC(=O)c1cc2cc(C[C@@H](C)NC[C@H](O)c3ccc(O)c(CO)c3)ccc2[nH]1` showed a logD in series [3] of 2.2. Besides, the Ratio EC50 in [2] was 1240.
For the compound `CSc1ccccc1CNC(=O)c1cc2cc(C[C@@H](C)NC[C@H](O)c3ccc(O)c(CO)c3)ccc2[nH]1`, in [1], a half-maximal response (EC50) required 0.038 nM. The Ratio EC50 in series [2] amounted to 332.
On to `COc1cccc(OC)c1CNC(=O)c1cc2cc(C[C@@H](C)NC[C@H](O)c3ccc(O)c(CO)c3)ccc2n1C`, for which the concentration giving a half-maximal response (EC50) in series [1] was 0.706 nM. Further, the Ratio EC50 in series [2] was determined as 1080.
The compound `CCn1c(C(=O)NCc2c(OC)cccc2OC)cc2cc(C[C@@H](C)NC[C@H](O)c3ccc(O)c(CO)c3)ccc21` had an EC50 in [1] of 2.55 nM. In addition, in series [2], the Ratio EC50 was 254.
Regarding `COc1cccc(OC)c1CNC(=O)c1cc2cc(C[C@@H](C)NC[C@H](O)c3ccc(O)c(CO)c3)ccc2[nH]1`, in series [4], the bioavailability was under 5%. Moreover, the volume of distribution (Vd) in series [5] was found to be 18 L/kg. Moreover, the response in series [1] was half-maximal at 0.058 nM (EC50). This compound came in with a logD in series [3] of 2.2. For the same compound, in series [6], the Papp B→A came out at 14 ×10⁻⁶ cm/s. In [7], this compound displayed a CL of 1200 mL/min/kg. The half-life in [8] is 96 min; in series [11], 4 min. For the same compound, the clearance in series [9] was 130 mL/min/kg. The apical-to-basolateral permeability (Papp A→B) in series [10] was under 1 ×10⁻⁶ cm/s. For the same compound, the Ratio EC50 in series [2] is 4040. In addition, the fraction unbound in series [12] is 0.1.
`C[C@H](Cc1ccc2[nH]c(C(=O)N(C)Cc3ccccc3)cc2c1)NC[C@H](O)c1ccc(O)c(CO)c1`: the midpoint of the response in [1], the EC50, lay at 0.022 nM. In addition, in series [3], the logD was found to be 2.1. For the same compound, the Ratio EC50 in [2] is 882.
For `COc1cccc(CCNC(=O)c2cc3cc(C[C@@H](C)NC[C@H](O)c4ccc(O)c(CO)c4)ccc3[nH]2)c1`, in that order: 0.254 nM, 2 and 35.
With `C[C@H](Cc1ccc2[nH]c(C(=O)N[C@H](C)c3ccccc3)cc2c1)NC[C@H](O)c1ccc(O)c(CO)c1`, the EC50 in series [1] came out at 0.058 nM. Also, the log distribution coefficient (logD) in series [3] amounted to 2.2. Also, in [2], the Ratio EC50 was determined as 585.
In turn, `C[C@H](Cc1ccc2[nH]c(C(=O)NCc3c(F)cccc3F)cc2c1)NC[C@H](O)c1ccc(O)c(CO)c1` registered a concentration for a half-maximal effect (EC50) in series [1] of 0.053 nM. In [2], the Ratio EC50 came to 296.
`C[C@H](Cc1ccc2[nH]c(C(=O)NCc3nccs3)cc2c1)NC[C@H](O)c1ccc(O)c(CO)c1` registered an EC50 in series [1] of 0.031 nM. Also, the logD in series [3] is 0.8. Besides, the Ratio EC50 in series [2] was found to be 1340.
In the case of `C[C@H](Cc1ccc2[nH]c(C(=O)NCc3ccc(S(N)(=O)=O)cc3)cc2c1)NC[C@H](O)c1ccc(O)c(CO)c1`, in [1], the midpoint of the response, the EC50, lay at 0.122 nM. The Ratio EC50 in series [2] came to 42.
`C[C@H](Cc1ccc2[nH]c(C(=O)NCc3ccccc3)cc2c1)NC[C@H](O)c1ccc(O)c(CO)c1`: it took 0.049 nM to reach a half-maximal effect in series [1] (EC50). Besides, the Ratio EC50 in series [2] was determined as 480.
For the compound `C[C@H](Cc1ccc2[nH]c(C(=O)NCC3CCC3)cc2c1)NC[C@H](O)c1ccc(O)c(CO)c1`, the EC50 in [1] stood at 0.051 nM. Also, the log distribution coefficient (logD) in series [3] worked out at 1.9. For the same compound, the Ratio EC50 in [2] came out at 410.
In turn, `C[C@H](Cc1ccc2[nH]c(C(=O)NCc3ccccn3)cc2c1)NC[C@H](O)c1ccc(O)c(CO)c1` returned a half-maximal effective concentration (EC50) in series [1] of 0.038 nM. Moreover, in series [2], the Ratio EC50 turned out to be 1530.
For the compound `OCc1cc([C@@H](O)CNCCCCCCOCCCCc2ccccc2)ccc1O` [SALMETEROL], the logD in series [3] worked out at 2.1.
In series [1], `CC[C@H](Cc1ccc2[nH]c(C(=O)NCc3c(OC)cccc3OC)cc2c1)NC[C@H](O)c1ccc(O)c(CO)c1` registered a concentration giving a half-maximal response (EC50) of 0.258 nM. Besides, the Ratio EC50 in series [2] was determined as 5740.
In turn, `COc1cccc(OC)c1CNC(=O)c1cc2cc(C[C@@H](C)NC[C@H](O)c3ccc(O)c(CO)c3)ccc2n1Cc1ccccc1` returned an EC50 in series [1] of 0.687 nM. Moreover, the Ratio EC50 in series [2] came out at 237.

By EC50 is commonly meant the midpoint of the concentration-response curve. A high value points to a less potent agent. A word on the logD: it is the decadic logarithm of the distribution of all forms, ionised or not, between an organic phase and buffer at a given pH. Higher therefore signals a more lipophilic compound. The bioavailability is dose-corrected exposure relative to a reference, in per cent. Low values mean little systemic uptake, high ones much systemic uptake. For orientation: Vd means the apparent volume that relates the amount in the body to the concentration in plasma or blood. A lower Vd goes with confinement near the circulation. One may read the Papp B→A as how fast a substance crosses the layer from the basolateral side. The term half-life denotes the time in which the quantity being followed falls by half. A higher half-life goes with slow decline. For orientation: clearance means the volume of plasma or blood freed of the substance per unit of time. Low values mean a low capacity for elimination, high ones a high capacity for elimination. What is called Papp A→B is the apparent permeability from the apical to the basolateral side of a cell layer.

The values above are taken from ChEMBL document CHEMBL1137546, “The discovery of indole-derived long acting beta2-adrenoceptor agonists for the treatment of asthma and COPD” (Bioorg Med Chem Lett, 2007).
